Laboratory results: patent US20090105172A1, “Stabilized Aptamers to PSMA and Their Use as Prostate Cancer Therapeutics” (priority 2005, published 2009)
“Also recorded” adds a separate entry of the source. {C6-FAM} = fluorescein label attached via 5'-amine; [invdT] = inverted (3'-3') thymidine; m = 2'-O-methyl; r = 2'-OH (RNA); f = 2'-fluoro

Assays:
LNCaP cells = assay: Cell proliferation assay (BrdU ELISA), targeted killing; assay type: cell-based; conditions: for effect on LNCaP cell viability: entire concentration range
Procedure: Effects on LNCaP cell viability were assessed in a cell proliferation assay based on chemiluminescent detection of BrdU described below (Cell Proliferation ELISA, BrdU (Roche, Indianapolis, Ind.). PC-3 cells were used as a control cell line.
Media from LNCaP (PSMA+) or PC3 (PSMA−) cells growing in 15 cm plates was aspirated off then cells were washed with 10 mL 1×PBS. Cells were trypsinized for 30 sec at 37° C. Following trypsinization, 8 mL 10% FBS media was used to quench trypsin. […] Following spin the media was aspirated off and the cell pellet was re-suspended with 10 mL complete media. The cell density was adjusted to 200,000 cells/mL. 50 μl of cells/well was added to collagen coated black 96-well plates (10,000 cells/well). […] Following overnight incubation 25 μl of media, aptamer or antibody was added to each well with the final volume in the well being 100 μl and incubated at 37° C. in 5% CO2 for designated time length. […] After 2 days 20 μl BrdU labeling reagent (100×) is mixed with 2 mL of complete media. […] After incubation, the media was removed, and the assay was completed following the manufacturer's protocol: 200 μl/well FixDenat solution was added to each well and incubated for 30 min at RT. Following removal of FixDenat solution 100 μl anti-BrdU POD Fab fragment solution (Luminol/4-iodophenol) was added to each well and incubated for 90 min at RT. After incubation anti-BrdU POD solution was removed and plates were washed with 200 μl/well of washing solution three times with 5 min RT incubations. 100 μl of substrate solution was added to each well and cells were incubated for 3 min at RT in the dark. The plates were read using a luminescence program with a 1 sec count on a Packard TopCount Microplate Scintillation and Luminescence Counter.

LNCaP cells (PSMA+) = assay: LNCaP FACS binding assay with fluorescein-labeled aptamers; assay type: cell-based; conditions: FACS analysis; scrambled A9 negative control
Procedure: To prepare aptamers for the FACS assay, PSMA aptamers were serially diluted (0-1 uM) in FACS buffer (1×DPBS w/Ca^++/Mg^++ (Gibco, Carlsbad, Calif.) supplemented with 10 mg/mL salmon sperm DNA & 0.2% Na Azide), in a V-bottom 96 well plate, at the concentrations to be tested. LNCaP and PC-3 cells (ATCC, Manassas, Va.) were harvested with trypsin, and 200,000 cells/well were counted, washed once with 1×DPBS (with Ca^++ and Mg^+) and resuspended in 200 μl of FACS Buffer. The 200 μl of cells in FACS buffer were added to individual wells of a new 96 well plate, pelleted by centrifugation (1300 rpm for 5 minutes), and resuspended in 100 μl of the appropriate concentration of diluted aptamer. FACS buffer, a-PSMA antibody (3C6) (Northwest Biotherapeutics, Bothell, Wash., Cat #: 60-5002) and an irrelevant fluorescein isothiocyanate (“FITC”) mouse IgG1 isotype control antibody (BD Pharmingen, San Diego, Calif., Cat#: 554679) were used as controls. The wells of aptamer/cell mixture were incubated at room temperature for 20-30 minutes.
After incubation, 180 μl of FACS buffer (plus 10 mg/mL ssDNA, and 0.2% Na Azide) was added to each well to quench the reaction and cells were pelleted by centrifugation.
Anti-fluorescein/Oregon Green®, rabbit IgG fraction, Alexa Fluor® 488 conjugate (Molecular Probes, Eugene, Oreg., Cat#: A11090) was diluted 1:100 in FACS buffer (100 μl/well) as the secondary antibody for the aptamer-FITC conjugates and FITC-mouse IgG isotype control. FITC Rat anti-mouse IgG1 (A85-1) (BD Pharmingen, San Diego, Calif., Cat#: 553443) was diluted in 1:100 in FACS Buffer as the secondary for the α-PSMA antibody. After centrifugation, the cell pellets were resuspended in 100 μl of the appropriate diluted secondary antibody, and incubated 10 minutes at room temperature. After incubation, 180 μl of FACS buffer was added to each well to quench the reaction, and cells were pelleted by centrifugation.
A tertiary antibody which recognizes the Alexa Fluor® 488 goat anti-rabbit IgG was prepared to further amplify the Alexa Fluor signal. Alexa Fluor® 488 goat anti-rabbit IgG (H+ L) (Molecular Probes, Eugene, Oreg., Cat#: A11034) was diluted 1:100 in FACS buffer, and the pelleted cells were resupsended in 100 μl of the tertiary antibody and incubated for 10 minutes at room temperature. […]
Cell samples were analyzed on a FACS Scan machine (Becton Dickinson, San Jose, Calif.) under the following parameters: FSC/SSC, FL-1/FSC, FL-3/FSC. The unstained and/or isotype controls were used to establish gating parameters, and the data was analyzed using Cell Quest Pro software version 5.1.1 (Becton Dickinson Immunocytometry Systems, San Jose, Calif.).

ECD PSMA = target: T1, ECD PSMA (Homo sapiens, UniProt Q04609); assay: Dot blot binding assay (nitrocellulose filter) with purified ECD PSMA; conditions: for Max % bound (highest % of minimer bound to target protein): dot blot
T1 construct: vector-derived N-terminal linker […]; made in house; host or cells: 293 Freestyle cells, pSecTag2B vector
T1 sequence (Q04609 with tags, fused parts or gaps): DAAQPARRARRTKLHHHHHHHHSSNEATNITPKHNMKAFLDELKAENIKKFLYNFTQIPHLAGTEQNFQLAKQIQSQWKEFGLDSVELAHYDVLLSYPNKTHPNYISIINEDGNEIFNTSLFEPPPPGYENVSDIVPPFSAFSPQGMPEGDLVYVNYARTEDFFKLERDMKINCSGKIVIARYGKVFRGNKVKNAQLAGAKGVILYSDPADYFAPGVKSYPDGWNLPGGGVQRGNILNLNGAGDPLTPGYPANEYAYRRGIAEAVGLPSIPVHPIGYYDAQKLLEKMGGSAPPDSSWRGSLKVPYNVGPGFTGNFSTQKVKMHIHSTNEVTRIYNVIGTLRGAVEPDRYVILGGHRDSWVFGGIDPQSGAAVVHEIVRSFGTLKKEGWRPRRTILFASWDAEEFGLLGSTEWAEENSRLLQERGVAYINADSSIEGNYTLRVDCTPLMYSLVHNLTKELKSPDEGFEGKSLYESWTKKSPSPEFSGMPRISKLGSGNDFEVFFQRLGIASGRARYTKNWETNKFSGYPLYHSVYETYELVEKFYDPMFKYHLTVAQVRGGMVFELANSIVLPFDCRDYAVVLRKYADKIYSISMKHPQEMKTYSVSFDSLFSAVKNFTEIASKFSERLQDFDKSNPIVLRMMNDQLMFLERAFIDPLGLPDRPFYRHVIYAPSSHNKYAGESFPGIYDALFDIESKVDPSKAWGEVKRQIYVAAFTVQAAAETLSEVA
From the text: Protein Purification of ECD of PSMA: An I.M.A.G.E. clone (5202715) encoding full length recombinant human PSMA was purchased from Open Biosystems (Clone EHS1001-18533, Huntsville, Ala.). PCR was used to amplify the extracellular portion of the full length clone. An oligo with an N-terminal histidine tag was designed to engineer a construct which lacks the transmembrane domain residues 1-44. The his-tagged extracellular domain (ECD) was subcloned into the pSecTag2B expression vector (Invitrogen, Carlsbad, Calif.). The ECD of PSMA was purified in house from transfected 293 Freestyle cells (ATCC, Manassas, Va.). The amino acid sequence of the expressed protein comprising an N-terminal linker sequence of […] followed by eight Histidines is listed below: […] VSDr[…]a[…]r[…]rYV […] (SEQ ID NO 5)
Dot Blot Binding Analysis. Dot blot binding assays were performed throughout the selections to monitor the protein binding affinity of the pools. For initial pool screening, trace ^32P-labeled pool RNA was combined with PSMA and incubated at room temperature for 30 min in 1×SHMCK buffer pH 7.4 (20 mM Hepes pH 7.4, 120 mM NaCl, 5 mM KCl, 1 mM MgCl2, 1 mM CaCl2) plus 0.1 mg/mL tRNA in a final volume of 30 μl. The mixture was applied to a dot blot apparatus (Schleicher and Schuell Minifold-1 Dot Blot, Acrylic, Keene, N.H.), assembled (from top to bottom) with nitrocellulose, nylon, and gel blot membranes. RNA that is bound to protein is captured on the nitrocellulose filter; whereas the non-protein bound RNA is captured on the nylon filter. […] The Round 9 pool was cloned and screened in a single point dot blot assay using 100 nM PSMA (0 nM PSMA was used as a negative control). Clone transcripts were 5′ end labeled with ^32-P ATP. Likely binders were than assayed for KD determination by the blot assay conditions described directly above, but without tRNA, using an 8 point PSMA titration with a constant RNA concentration. […] Both of the clones screened were unique sequences in the Round 9 selection pool.
In order to identify the core structural elements required for ARC955 binding to PSMA, the 3′-boundaries of the clone was determined through alkaline hydrolysis. The parent RNA transcript was labeled at the 5′-end with γ-^32P ATP and T4 polynucleotide kinase. Radiolabeled ligands were subjected to partial alkaline hydrolysis and then selectively bound in solution to ECD PSMA (purified in house) at 100 nM before being passed through nitrocellulose filters (Centrex MF 1.5 mL, 0.45 μm, Schleicher & Schuell, Keene N.H.). Retained oligonucleotides were resolved on 8% denaturing polyacrylamide gels. The smallest oligonucleotide bound to PSMA defined the 3′-boundary. On the basis of the boundary experiments as well as visual inspection of predicted folds, truncated constructs were synthesized. Clones were then assayed by dot blot as previously described to determine their KD. […] The binding curve for ARC1091 in the dot blot assay is depicted in FIG. 5A, and the predicted secondary structure of ARC1091 is depicted in FIG. 5B. The KD and maximum % bound for the 3 minimized constructs with the overall highest PSMA affinity, as determined by a dot blot binding assay, are listed in Table 4. For the minimized rGmH aptamers described in Table 5 below, the guanosine triphosphates are 2′-OH and the adenosines triphosphates, cytidine triphosphates and uridine triphosphates are 2′-OMe. Unless noted otherwise, the individual sequences are represented in the 5′ to 3′ orientation. In some embodiments, the invention comprises aptamers with a nucleic acid sequence as described in Table 4 below. In some embodiments, the nucleic acid sequence of an aptamer described in Table 4 below additionally comprises a 3′ cap (e.g., an inverted dT cap), and/or 5′ amine (NH2) modification to facilitate chemical coupling, and/or conjugation to a high molecular weight, non-immunogenic compound (e.g., PEG). […]

[1] = Round 9 PSMA rGmH clones, 8 point PSMA titration, without tRNA

O=c1c(-c2ccc(O)cc2)coc2cc(O)cc(O)c12 [Genistein, reference compound]
effect in cytotoxicity assays at 25 μM (LNCaP cells; positive control, 25 μM): partial inhibition
effect in cytotoxicity assays at 150 μM (LNCaP cells; positive control, 150 μM): complete cell killing

C6 FAM-GGAGGACCGAAAAAGACCUGACUUCUAUACUAAGUCUACGUUCCUCC-3T (2'-fluoro at CU, RNA at AG, [invdT] at 3' end, 5' {C6-FAM}, backbone not given here) [ARC710, fluorescently labeled A9 minimer]
competition with fluorescently labeled anti-PSMA antibody for binding to the surface of LNCaP cells (LNCaP cells (PSMA+)): effectively competes

CUACUACACAUGGGUCGGGUGAGUGGCAAAGGAAUAGUAG (2'-O-methyl at ACU, RNA at G, backbone not given here) [ARC725, non-functional rGmH minimer, irrelevant control]
PSMA binding (ECD PSMA): no intrinsic PSMA binding; also recorded: not to exhibit PSMA binding
KD (nM) (ECD PSMA; rGmH minimers): no binding
Max % bound (highest % of minimer bound to target protein) (ECD PSMA; rGmH minimers): no binding

CUACUGGGUGGCUGGGAGGGGAAGAGGGAGUAG (2'-O-methyl at ACU, RNA at G, backbone not given here) [ARC1089, rGmH minimer]
Kd (ECD PSMA; rGmH minimers): 9.3 nM
Max % bound (highest % of minimer bound to target protein) (ECD PSMA; rGmH minimers): 22%

GGGUGGCUGGGAGGGGAAGAGGG (2'-O-methyl at ACU, RNA at G, backbone not given here) [ARC1088, rGmH minimer]
Kd (ECD PSMA; rGmH minimers): 2.1 nM
Max % bound (highest % of minimer bound to target protein) (ECD PSMA; rGmH minimers): 33%

UAAUACGACUCACUAUAGGGAGAGGAGAGAACGUUCUACUAUGGGUGGCUGGGAGGGGAAGAGGGAGUAGGUCGAUCGAUCGAUCAUCGAUG [ARC955]
Kd (ECD PSMA; [1]): 9 nM
effect on LNCaP cell viability (LNCaP cells): no intrinsic effect on cell viability

UAAUACGACUCACUAUAGGGGAGAGGAGAGAACGUUCUACACAUGGGUCGGGUGAGUGGCAAAGGAAUAGGUCGAUCGAUCGAUCAUCGAUG [ARC956]
Kd (ECD PSMA; [1]): 16 nM

c6 fam-mCmGmGmAfCfCmGAAAAmAmGmAmCfCfUGAfCfUfUfCfUAfUAfCfUAAmGmUmCmUAfCmGfUmUmCmCmG-3T (CGGACCGAAAAAGACCUGACUUCUAUACUAAGUCUACGUUCCG; sugars from the 5' end mmmmffmrrrrmmmmffrrfffffrfrffrrmmmmrfmfmmmm, [invdT] at 3' end, 5' {C6-FAM}, backbone not given here) [ARC711, fluorescently labeled A9 minimer]
competition with fluorescently labeled anti-PSMA antibody for binding to the surface of LNCaP cells (LNCaP cells (PSMA+)): effectively competes

mAGmAGGmAGmAGmAmAmCGmUmUmCmUmAmCmUmAmUGGGmUGGmCmUGGGmAGGGG (AGAGGAGAGAACGUUCUACUAUGGGUGGCUGGGAGGGG; 2'-O-methyl at ACU, RNA at G, backbone not given here) [ARC1091, minimized ARC955 (G2) aptamer]
PSMA binding (ECD PSMA): maintains the full binding capacity
Kd (ECD PSMA; rGmH minimers): 3.1 nM
Max % bound (highest % of minimer bound to target protein) (ECD PSMA; rGmH minimers): 52%

mCmGmGmAfCfCmGAAAAmAmGmAmCfCfUGAfCfUfUfCfUAfUAfCfUAAmGmUmCmUAfCmGfUmUmCmCmG-3T (CGGACCGAAAAAGACCUGACUUCUAUACUAAGUCUACGUUCCG; sugars from the 5' end mmmmffmrrrrmmmmffrrfffffrfrffrrmmmmrfmfmmmm, [invdT] at 3' end, backbone not given here) [ARC942, minimized A9 aptamer]
effect on LNCaP cell viability (LNCaP cells): no intrinsic effect on cell viability
